Laboratory results published in US20230104074A1, “BORTEZOMIB COMPOSITIONS” (MAIA Pharmaceuticals, Inc., priority 2021, published 2023).

How the values were obtained:
[1] = Formulation attempts at 2.5 mg/mL with low concentrations of benzyl alcohol and other non-aqueous solvents; assay type: physicochemical
Experimental: Initial formulation experiments with low concentrations of various non-aqueous solvents were conducted targeting a bortezomib concentration of 2.5 mg/mL. Attempts to solubilize bortezomib were conducted using low concentrations of benzyl alcohol (2% v/v), or dimethyl sulfoxide (5% v/v), or a combination of these solvents. […] For these formulations, the non-aqueous solvent was added to bortezomib to dissolve it, followed by addition of water to the bortezomib-solvent mixture.

[2] = DMSO in water formulations: dissolution, physical stability, effect of pH on chemical stability; assay type: physicochemical; settings: 1 mg/mL, 1% (v/v) DMSO in water, pH 5.5
Experimental: Various concentrations of DMSO were explored as the non-aqueous component of the formulation (2% v/v to 5% v/v in water). Bortezomib was first completely dissolved in the batch volume of DMSO to form a concentrated “premix” solution prior to making up the batch to the target concentration (2.5 mg/mL) with water. This was done to facilitate the subsequent dissolution of bortezomib in the aqueous component. The pH values of the formulations were all approximately 7.
The effect of pH on bortezomib formulations using a low concentration of DMSO in water (4.5% v/v DMSO for the 2.5 mg/mL strength and 1% v/v DMSO for the 1 mg/mL strength) was then assessed. In each case, the bortezomib was first fully dissolved in the batch quantity of DMSO to form a concentrated premix solution, which was then added to water, and the pH adjusted with sodium hydroxide and/or hydrochloric acid to pH ranging from 4 to 8.5. […] Because oxidative degradation is a significant degradation pathway for bortezomib, filled vials were overlayed with nitrogen. These batches were placed on stability at accelerated (25° C.) and long-term storage conditions (2-8° C.). […]

CC(C)C[C@H](NC(=O)[C@H](Cc1ccccc1)NC(=O)c1cnccn1)B(O)O [Bortezomib, [(1R)-3-methyl-1-[[(2S)-1-oxo-3-phenyl-2-[(pyrazinylcarbonyl)amino]propyl]amino]butyl] boronic acid]
Appearance on heating the solution ([1]; heating up to 70° C., precipitated bortezomib not dissolved): a pink color formed indicating degradation of the active
Dissolution on addition of water to bortezomib-solvent mixture ([1]; target 2.5 mg/mL, benzyl alcohol (2% v/v), DMSO (5% v/v) or combination, mixing >3 hours): precipitated after addition of water
Total Impurities after 2 months at 25° C. (%) [2]: 0.52%
